Source: patent US20250085201A1, “SUBSTITUTED QUADRUPOLAR FLUORESCENT DYES FOR LIVE CELL IMAGING” (Northwestern University, priority 2023, published 2025)

Columns and labels:
Type in all cases: physicochemical
[1] = Solubility (qualitative); details: PF6− salt; e.g. MeCN, Me2CO, DMF
[2] = Absolute fluorescence quantum yield (integrating sphere); details: in MeCN
Experimental: (§1) Fluorescent dyes were dissolved in the appropriate solvents to afford 1 mM solutions prior to spectroscopic analysis. A portion of 30 μL of a 1 mM solution was diluted by adding a selected solvent to a sample with a total volume of 3000 μL, affording a 1×10^−5 M solution. UV/Vis Absorption spectra were recorded in glass cuvettes on a UV-3600 Shimadzu spectrophotometer. Steady-state emission spectra were acquired in quartz cuvettes with optical path-lengths of 10 mm containing the solution being analyzed using a HORIBA Fluoromax4 spectrofluorometer, which was equipped with an integrating sphere for determining the absolute photoluminescence quantum yield.
(§2) Steady-state and time-resolved emission spectra for dyes 1-6, 7·2PF6 and 9·4PF6 were acquired using a HORIBA Fluorolog-3 spectrofluorometer, equipped with a time-correlated single photon counting (TCSPC) module (diode laser excitation at λ=375 nm) and an integrating sphere, which was used for absolute photo-luminescence quantum yield determinations. Picosecond time-resolved fluorescence measurements were recorded using a commercial direct-diode-pumped 100 kHz amplifier (Spirit 1040-HE, Spectra-Physics), producing a fundamental beam of 1040 nm (350 fs, 12 W) which was used to pump a non-collinear optical parametric amplifier (Spirit-NOPA, SpectraPhysics) capable of delivering tunable, high-repetition-rate pulses with pulse widths as short as sub-20 fs. Dyes 1-6, 7·2PF6 and 9·4PF6 were excited with 350 nm, 2 nJ laser pulses. Fluorescence was detected using a Hamamatsu C4780 Streakscope as previously described in the literature. Samples were prepared in 2-mm quartz cuvettes. All data were acquired in the single-photon-counting mode using the Hamamatsu HPD-TA software. The temporal resolution was approximately 2% of the sweep window. Single wavelength kinetic analysis was performed using a nonlinear least-squares fit to a sum of exponentials convoluted with an instrument response function. Visible and near-infrared femtosecond and nanosecond transient absorption (fsTA and nsTA, respectively) spectroscopies were performed following descriptions already recorded in the literature. The 330 nm, ˜100 fs pump pulses were generated at 1 μJ per pulse using a commercial collinear optical parametric amplifier (TOPAS-Prime, Light-Conversion, Ltd.); 414-nm pump pulses were obtained by second-harmonic generation of the 828 nm fundamental. The pump polarization was randomized using a commercial depolarizer (DPU-25-A, Thorlabs, Inc.) to eliminate any orientational dynamics resulting from the experiment. Spectra were collected on commercial spectrometers (customized Ultrafast Systems Helios and EOS spectrometers, for fsTA and nsTA, respectively) for each time window. All samples were stirred to avoid localized heating or degradation effects. The optical density was maintained at 0.6 for all samples.
Steady-state and time-resolved emission spectra for dyes 7·2PF6 and 9·4PF6 were acquired using a HORIBA Fluorolog-3 spectrofluorometer, equipped with a time-correlated single photon counting (TCSPC) module (diode laser excitation at =375 nm) and an integrating sphere, which was used for absolute photo-luminescence quantum yield determinations. Picosecond time-resolved fluorescence measurements were recorded using a commercial direct-diode-pumped 100 kHz amplifier (Spirit 1040-HE, Spectra-Physics), producing a fundamental beam of 1040 nm (350 fs, 12 W) which was used to pump a non-collinear optical parametric amplifier (Spirit-NOPA, SpectraPhysics) capable of delivering tunable, high-repetition-rate pulses with pulse widths as short as sub-20 fs. The samples 7·2PF6 and 9·4PF6 were excited with […], 2 nJ laser pulses. Fluorescence was detected using a Hamamatsu C4780 Streakscope as previously described in the literature.^71 Samples were prepared in 2-mm quartz cuvettes. All data were acquired in the single-photon-counting mode using the Hamamatsu HPD-TA software. […]

[3] = Transient absorption (fsTA/nsTA) and time-resolved fluorescence spectroscopy; details: in MeCN; for non-radiative decay rate constant kNR: kNR = kobs(1 − ΦF); for radiative decay rate constant kR: kR = kobsΦF
From the text: The excited-state properties of these quadrupolar dyes were investigated using transient absorption (TA) spectroscopy. The TA data of dyes 1-4 and 6 in MeCN with lex=350 nm (FIGS. 9-12 and 15) show similar spectra with the same general electronic evolution, though with differing kinetics. Following excitation, strong excited-state absorption features appear between ˜450-500 nm along with a strong single peak in the near-infrared region, both of which are associated with Sn←S1 absorptions. The visible bands redshift over the following ˜100 ps, while the near-infrared band peaks first blueshift in the initial ˜10 ps before settling. These near-infrared absorption bands are similar to those observed^59,60 in extended bipyridinium compounds. Following these shifts, the excited states decay via emission with lifetimes between 3-4 ns as confirmed by time-resolved fluorescence (TRF) spectroscopy. The spectral shape of the transient species is generally maintained throughout their lifetimes, implying that the dynamics in each dye all occur on a single electronic excited state (S1) prior to emission. The spectral shifts at early times may arise due to excited-state symmetry breaking^77-78 in the quadrupolar dyes, wherein fluctuations in the instantaneous electrostatic environment afforded by the solvent transiently favor wavefunction localization on one side of the symmetric molecule, creating an excited state with a large dipole moment that is associated with the Stokes shift observed^79 in the fluorescence spectra. This localization can lead to changes in the transient absorption spectra as a result of the breakdown^42,80 of the Laporte rule. The shifts at longer times may arise from solvent or structural relaxation of the dyes.
as §2, with “samples. […]” for “samples.”

[4] = Absolute fluorescence quantum yield (integrating sphere); details: 414 nm excitation
[5] = Steady-state UV/Vis absorption and fluorescence emission spectra; details: THF, 10 μM
Experimental: Fluorescent dyes 1-6, 7·2PF6, 8·2PF6, 9·4PF6 and 9·4Cl were dissolved in THF (1-5), MeCN (6, 7·2PF6, 8·2PF6 and 9.4PF6) and H2O (9.4Cl), respectively, to afford 10 μM solutions prior to spectroscopic analysis. For comparison, their normalized (i) UV/Vis absorption (FIG. 2) and (ii) the fluorescence emission (FIG. 3) spectra of quadrupolar dyes are overlayed, displaying a large range of S1 absorbance and emission maxima, which rely highly on their quadrupolarity that is correlated to the electron-deficiency of the ARs.
as §1

[6] = Transient absorption (fsTA/nsTA) and time-resolved fluorescence spectroscopy; details: in PhMe

Quantum Yield (ΦF) [2]	UV absorption band centre [5]	emission λem [5]	Compound	solubility in polar organic solvents [1]	excited-state (emissive) lifetime [3]	rate constant k1 from TA data [3]	rate constant k2 from TA data [3]	rate constant k3 from TA data [3]	rate constant k4 from TA data [3]	non-radiative decay rate constant kNR [3]	radiative decay rate constant kR [3]	ΦF in the solid-state (powder) [4]	triplet state lifetime (diffusional quenching-limited) ([6]; deaerated solution)	CT state decay to triplet state ([6]; excited at 350 nm)	S1 state decay time ([6]; excited at 350 nm)	CT state decay back to the ground state ([3]; excited at 350 nm)	initially excited state (S1) decay time ([3]; excited at 350 nm)	non-radiative decay rate constant kNR ([3]; kobs = k1)
0.56	–	–	CCCCCCCCOc1cc(-c2ccc(C(F)(F)F)cc2)c(OCCCCCCCC)cc1-c1ccc(C(F)(F)F)cc1 [Dye 2]	–	–	(1.4 ± 0.3 ps)^−1 (ps)^−1	(85 ± 2 ps)^−1 (ps)^−1	(3.16 ± 0.01 ns)^−1 (ns)^−1	(150 ± 2 ns)^−1 (ns)^−1	(7.2 ± 0.1 ns)^−1 (ns)^−1	(5.64 ± 0.05 ns)^−1 (ns)^−1	–	–	–	–	–	–	–
0.81	–	–	CCCCCCCCOc1cc(-c2ccc(C#N)cc2)c(OCCCCCCCC)cc1-c1ccc(C#N)cc1 [Dye 3]	–	–	(0.8 ± 0.3 ps)^−1 (ps)^−1	(99 ± 2 ps)^−1 (ps)^−1	(4.23 ± 0.02 ns)^−1 (ns)^−1	(314 ± 1 ns)^−1 (ns)^−1	(22.3 ± 0.6 ns)^−1 (ns)^−1	(5.22 ± 0.03 ns)^−1 (ns)^−1	–	–	–	–	–	–	–
0.78	–	–	CCCCCCCCOc1cc(-c2ccc(C(=O)OC)cc2)c(OCCCCCCCC)cc1-c1ccc(C(=O)OC)cc1 [Dye 4]	–	–	(0.7 ± 0.3 ps)^−1 (ps)^−1	(132 ± 7 ps)^−1 (ps)^−1	(3.80 ± 0.01 ns)^−1 (ns)^−1	(210 ± 2 ns)^−1 (ns)^−1	(17.3 ± 0.4 ns)^−1 (ns)^−1	–	–	–	–	–	–	–	–

Further lines, the compound ahead of its results:

Compound	Quantum Yield (ΦF) [2]	UV absorption band centre [5]	emission λem [5]	solubility in polar organic solvents [1]	excited-state (emissive) lifetime [3]	rate constant k1 from TA data [3]	rate constant k2 from TA data [3]	rate constant k3 from TA data [3]	rate constant k4 from TA data [3]	non-radiative decay rate constant kNR [3]	radiative decay rate constant kR [3]	ΦF in the solid-state (powder) [4]	triplet state lifetime (diffusional quenching-limited) ([6]; deaerated solution)	CT state decay to triplet state ([6]; excited at 350 nm)	S1 state decay time ([6]; excited at 350 nm)	CT state decay back to the ground state ([3]; excited at 350 nm)	initially excited state (S1) decay time ([3]; excited at 350 nm)	non-radiative decay rate constant kNR ([3]; kobs = k1)
COc1cc2c(OC)cc1-c1cc[n+](cc1)Cc1ccc(cc1)C[n+]1ccc(cc1)-c1cc(OC)c(cc1OC)-c1cc[n+](cc1)Cc1ccc(cc1)C[n+]1ccc-2cc1 [9·4PF6]	0.28	–	–	readily soluble	3.45±0.01 ns	(1.4 ± 0.3 ps)^−1 (ps)^−1	(188 ± 4 ps)^−1 (ps)^−1	(3.45 ± 0.01 ns)^−1 (ns)^−1	(450 ± 70 ns)^−1 (ns)^−1	(4.79 ± 0.03 ns)^−1 (ns)^−1	(12.3 ± 0.2 ns)^−1 (ns)^−1	0.030±0.005	–	–	–	–	–	–
CCCCCCCCOc1cc(-c2ccc(F)cc2)c(OCCCCCCCC)cc1-c1ccc(F)cc1 [Dye 1]	0.13	316 nm	380 nm	–	–	(5.4 ± 0.6 ps)^−1 (ps)^−1	(83 ± 7 ps)^−1 (ps)^−1	(3.38 ± 0.03 ns)^−1 (ns)^−1	(155 ± 3 ns)^−1 (ns)^−1	(3.89 ± 0.02 ns)^−1 (ns)^−1	–	–	–	–	–	–	–	–
CCCCCCCCOc1cc(-c2ccc([N+](=O)[O-])cc2)c(OCCCCCCCC)cc1-c1ccc([N+](=O)[O-])cc1 [Dye 5]	<0.005	–	–	–	–	(4.3 ± 0.3 ps)^−1 (ps)^−1	(28 ± 2 ps)^−1 (ps)^−1	(102.7 ± 0.3 ns)^−1 (ns)^−1	–	–	<(0.9 ns)^−1 (ns)^−1	–	1 µs	18 ns	7.9±0.3 ps	102 ns	4.3±0.3 ps	>(4 ps)^−1 (ps)^−1
COc1cc(-c2ccncc2)c(OC)cc1-c1ccncc1 [Dye 6]	0.63	–	–	–	–	(0.6 ± 0.3 ps)^−1 (ps)^−1	(52 ± 1 ps)^−1 (ps)^−1	(4.05 ± 0.02 ns)^−1 (ns)^−1	(163 ± 2 ns)^−1 (ns)^−1	(11.0 ± 0.2 ns)^−1 (ns)^−1	(6.43 ± 0.05 ns)^−1 (ns)^−1	–	–	–	–	–	–	–
